Measured values from patent US20090062251A1, “Novel Compounds 002” (ASTRAZENECA AB, priority 2007, published 2009).

Experiments:
[1] = molecular target: T1, Human CB1 receptor (hCB1) (Homo sapiens, UniProt P21554); experiment: hCB1 GTPγS binding; format: biochemical; conditions: for EC50: hCB1 membranes, GTPγ35S, 10-point dose-response; for Emax: maximal stimulated binding determined with 10 μM Win 55,212-2
T1 construct: purchased Receptor Biology
Procedure: hCB1 and hCB2 GTPγS Binding
Human CB1 receptor from Receptor Biology (hCB1) or human CB2 receptor membranes (BioSignal) are thawed at 37° C., passed 3 times through a 25-gauge blunt-end needle and diluted in the GTPγS binding buffer (50 mM Hepes, 20 mM NaOH, 100 mM NaCl, 1 mM EDTA, 5 mM MgCl2, pH 7.4, 0.1% BSA). […] The basal and maximal stimulated binding is determined in absence and presence of 1 μM (hCB2) or 10 μM (hCB1) Win 55, 212-2 respectively. The membranes are pre-incubated for 5 minutes with 56.25 μM (hCB2) or 112.5 μM (hCB1) GDP prior to distribution in plates (15 μM (hCB2) or 30 μM (hCB1) GDP final). The plates are vortexed and incubated for 60 minutes at room temperature, filtered on Unifilters GF/B (presoaked in water) with the Tomtec or Packard harvester using 3 ml of wash buffer (50 mM Tris, 5 mM MgCl2, 50 mM NaCl, pH 7.0). The filters are dried for 1 hour at 55° C. The radioactivity (cpm) is counted in a TopCount (Packard) after adding 65 μl/well of MS-20 scintillation liquid. Antagonist reversal studies are done in the same way except that (a) an agonist dose-response curve is done in the presence of a constant concentration of antagonist, or (b) an antagonist dose-response curve is done in the presence of a constant concentration of agonist.

[2] = molecular target: T1, Human CB1 receptor (hCB1); experiment: hCB1 receptor binding (3H-CP55,940 displacement); conditions: hCB1 membranes, Ki=IC50/(1+[rad]/Kd)
Procedure: hCB1 and hCB2 Receptor Binding
Human CB1 receptor from Receptor Biology (hCB1) or human CB2 receptor from BioSignal (hCB2) membranes are thawed at 37° C., passed 3 times through a 25-gauge blunt-end needle, diluted in the cannabinoid binding buffer (50 mM Tris, 2.5 mM EDTA, 5 mM MgCl2, and 0.5 mg/mL BSA fatty acid free, pH 7.4) and aliquots containing the appropriate amount of protein are distributed in 96-well plates. […] The total and non-specific binding are determined in the absence and presence of 0.2 μM of HU210 respectively. The plates are vortexed and incubated for 60 minutes at room temperature, filtered through Unifilters GF/B (presoaked in 0.1% polyethyleneimine) with the Tomtec or Packard harvester using 3 mL of wash buffer (50 mM Tris, 5 mM MgCl2, 0.5 mg BSA pH 7.0). The filters are dried for 1 hour at 55° C. The radioactivity (cpm) is counted in a TopCount (Packard) after adding 65 μl/well of MS-20 scintillation liquid.
Based on the above assays, the dissociation constant (Ki) for a particular compound of the invention towards a particular receptor is determined using the following equation:
[rad] is a standard or reference radioactive ligand concentration at that moment; and
Kd is the dissociation constant of the radioactive ligand towards the particular receptor.

T1 sequence (P21554 whole entry): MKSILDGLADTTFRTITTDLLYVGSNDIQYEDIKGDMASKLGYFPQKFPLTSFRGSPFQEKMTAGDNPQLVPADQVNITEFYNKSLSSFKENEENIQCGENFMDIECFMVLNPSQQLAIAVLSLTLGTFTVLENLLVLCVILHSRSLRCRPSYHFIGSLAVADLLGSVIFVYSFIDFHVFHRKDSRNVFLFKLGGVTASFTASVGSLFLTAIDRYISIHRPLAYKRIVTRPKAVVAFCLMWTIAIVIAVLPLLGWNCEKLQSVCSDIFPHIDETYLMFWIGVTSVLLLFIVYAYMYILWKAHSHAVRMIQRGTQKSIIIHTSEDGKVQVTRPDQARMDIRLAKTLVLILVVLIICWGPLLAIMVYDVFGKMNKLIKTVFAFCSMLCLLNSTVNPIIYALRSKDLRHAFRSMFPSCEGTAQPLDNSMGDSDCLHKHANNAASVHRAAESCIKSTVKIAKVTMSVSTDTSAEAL

Row | Structure (SMILES) | EC50 [1] | Emax [1] | Ki [2]
1 | CC(C)C(=O)NC1CCCN(C(=O)c2ccc3c(c2)c2c(n3C)CCC(C3CCOCC3)C2)C1 (stereo not drawn) [2-methyl-N-[1-[9-methyl-6-(oxan-4-yl)5,6,7,8-tetrahydrocarbazole-3-carbonyl]-3-piperidyl]propanamide] | 401 nM | 118% | 157 nM
2 | CN(CC(=O)NC1CC1)C(=O)c1ccc2c(c1)c1c(n2S(C)(=O)=O)CCC(C2CCCCC2)C1 (stereo not drawn) [6-cyclohexyl-N-(cyclopropylcarbamoylmethyl)-N-methyl-9-methylsulfonyl-5,6,7,8-tetrahydrocarbazole-3-carboxamide] | 31.3 nM | 111% | 7.9 nM
3 | CC(C)S(=O)(=O)n1c2c(c3cc(C(=O)N(C)CC(=O)NC4CC4)ccc31)CC(C1CCCCC1)CC2 (stereo not drawn) [6-cyclohexyl-N-(cyclopropylcarbamoylmethyl)-N-methyl-9-propan-2-ylsulfonyl-5,6,7,8-tetrahydrocarbazole-3-carboxamide] | 43.9 nM | 110% | 21.2 nM
4 | CCNC(=O)CN(CC)C(=O)c1ccc2c(c1)c1c(n2CC2CC2)CCC(C2CCOCC2)C1 (stereo not drawn) [9-(cyclopropylmethyl)-N-ethyl-N-(ethylcarbamoylmethyl)-6-(oxan-4-yl)-5,6,7,8-tetrahydrocarbazole-3-carboxamide] | 157 nM | 90% | 65.2 nM
5 | CCN(CC(=O)NC(C)C)C(=O)c1ccc2c(c1)c1c(n2C2CCC2)CCC(C2CCOCC2)C1 (stereo not drawn) [9-cyclobutyl-N-ethyl-6-(oxan-4-yl)-N-(propan-2-ylcarbamoylmethyl)-5,6,7,8-tetrahydrocarbazole-3-carboxamide] | 293 nM | 70% | 152 nM
6 | CCN(CC(=O)NCCF)C(=O)c1ccc2c(c1)c1c(n2C2CCC2)CCC(C2CCOCC2)C1 (stereo not drawn) [9-cyclobutyl-N-ethyl-N-(2-fluoroethylcarbamoylmethyl)-6-(oxan-4-yl)-5,6,7,8-tetrahydrocarbazole-3-carboxamide] | 279 nM | 80% | 131 nM
7 | CCNC(=O)CN(CC)C(=O)c1ccc2c(c1)c1c(n2C2CCC2)CCC(C2CCOCC2)C1 (stereo not drawn) [9-cyclobutyl-N-ethyl-N-(ethylcarbamoylmethyl)-6-(oxan-4-yl)-5,6,7,8-tetrahydrocarbazole-3-carboxamide] | 233 nM | 82% | 113 nM
8 | CCn1c2c(c3cc(C(=O)N(C)CCCC(=O)NCCF)ccc31)CC(C1CCOCC1)CC2 (stereo not drawn) [9-ethyl-N-[3-(2-fluoroethylcarbamoyl)propyl]-N-methyl-6-(oxan-4-yl)-5,6,7,8-tetrahydrocarbazole-3-carboxamide] | 60.3 nM | 119% | 25.8 nM
9 | CCn1c2c(c3cc(C(=O)N(C)CCCC(=O)NCCO)ccc31)CC(C1CCOCC1)CC2 (stereo not drawn) [9-ethyl-N-[3-(2-hydroxyethylcarbamoyl)propyl]-N-methyl-6-(oxan-4-yl)-5,6,7,8-tetrahydrocarbazole-3-carboxamide] | 597 nM | 119% | 236 nM
10 | CCn1c2c(c3cc(C(=O)N(C)CCCC(=O)NCC(F)(F)F)ccc31)CC(C1CCOCC1)CC2 (stereo not drawn) [9-ethyl-N-methyl-6-(oxan-4-yl)-N-[3-(2,2,2-trifluoroethylcarbamoyl)propyl]-5,6,7,8-tetrahydrocarbazole-3-carboxamide] | 228 nM | 98% | 110 nM
11 | CCn1c2c(c3cc(C(=O)N(C)CCCC(=O)NC)ccc31)CC(C1CCOCC1)CC2 (stereo not drawn) [9-ethyl-N-methyl-N-[3-(methylcarbamoyl)propyl]-6-(oxan-4-yl)-5,6,7,8-tetrahydrocarbazole-3-carboxamide] | 146 nM | 121% | 59.2 nM
12 | Cn1c2c(c3cc(C(=O)N4CC[C@H](C(=O)NCC(F)F)C4)ccc31)CC(C1CCOCC1)CC2 (stereo partly drawn) [(3S)—N-(2,2-difluoroethyl)-1-[9-methyl-6-(oxan-4-yl)5,6,7,8-tetrahydrocarbazole-3-carbonyl]pyrrolidine-3-carboxamide] | 82.6 nM | 125% | 49.5 nM
13 | Cn1c2c(c3cc(C(=O)N4CC[C@H](C(=O)NCCF)C4)ccc31)CC(C1CCOCC1)CC2 (stereo partly drawn) [(3S)—N-(2-fluoroethyl)-1-[9-methyl-6-(oxan-4-yl)5,6,7,8-tetrahydrocarbazole-3-carbonyl]pyrrolidine-3-carboxamide] |  | 119% | 30.5 nM
14 | Cn1c2c(c3cc(C(=O)N4CC[C@H](C(=O)NCC5CC5)C4)ccc31)CC(C1CCOCC1)CC2 (stereo partly drawn) [(3S)—N-(cyclopropylmethyl)-1-[9-methyl-6-(oxan-4-yl)5,6,7,8-tetrahydrocarbazole-3-carbonyl]pyrrolidine-3-carboxamide] | 251 nM | 117% | 109 nM
15 | CCNC(=O)[C@H]1CCN(C(=O)c2ccc3c(c2)c2c(n3C)CCC(C3CCOCC3)C2)C1 (stereo partly drawn) [(3S)—N-ethyl-1-[9-methyl-6-(oxan-4-yl)5,6,7,8-tetrahydrocarbazole-3-carbonyl]pyrrolidine-3-carboxamide] | 103 nM | 122% | 69.9 nM
16 | CCn1c2c(c3cc(C(=O)N4CCC(C)CC4)ccc31)CC(C1CCCCC1)CC2 (stereo not drawn) [(6-cyclohexyl-9-ethyl-5,6,7,8-tetrahydrocarbazol-3-yl)-(4-methyl-1-piperidyl)methanone] | 234 nM | 90% | 82.3 nM
17 | CNCCN(C)C(=O)c1ccc2c(c1)c1c(n2C)CCC(C2CCOCC2)C1 (stereo not drawn) [N,9-dimethyl-N-(2-methylaminoethyl)-6-(oxan-4-yl)-5,6,7,8-tetrahydrocarbazole-3-carboxamide] |  |  | > 8720 nM
18 | Cn1c2c(c3cc(C(=O)NCCF)ccc31)CC(C1CCOCC1)CC2 (stereo not drawn) [N-(2-fluoroethyl)-9-methyl-6-(oxan-4-yl)-5,6,7,8-tetrahydrocarbazole-3-carboxamide] |  |  | 659 nM
19 | CCN(CC(=O)NCC#N)C(=O)c1ccc2c(c1)c1c(n2C)CCC(C2CCOCC2)C1 (stereo not drawn) [N-(cyanomethylcarbamoylmethyl)-N-ethyl-9-methyl-6-(oxan-4-yl)-5,6,7,8-tetrahydrocarbazole-3-carboxamide] |  |  | 333 nM
20 | CN(C(=O)c1ccc2c(c1)c1c(n2C)CCC(C2CCOCC2)C1)C1(C(=O)NC2CC2)CC1 (stereo not drawn) [N-[1-(cyclopropylcarbamoyl)cyclopropyl]-N,9-dimethyl-6-(oxan-4-yl)-5,6,7,8-tetrahydrocarbazole-3-carboxamide] |  |  | 371 nM
21 | CN(CCC(=O)NC1CC1)C(=O)c1ccc2c(c1)c1c(n2C)CCC(C2CCOCC2)C1 (stereo not drawn) [N-[2-(cyclopropylcarbamoyl)ethyl]-N,9-dimethyl-6-(oxan-4-yl)-5,6,7,8-tetrahydrocarbazole-3-carboxamide] |  |  | 655 nM
22 | Cn1c2c(c3cc(C(=O)NCCCC(=O)NC4CC4)ccc31)CC(C1CCOCC1)CC2 (stereo not drawn) [N-[3-(cyclopropylcarbamoyl)propyl]-9-methyl-6-(oxan-4-yl)-5,6,7,8-tetrahydrocarbazole-3-carboxamide] |  |  | 1440 nM
23 | CCN(CC(=O)NC1(C#N)CC1)C(=O)c1ccc2c(c1)c1c(n2C)CCC(C2CCOCC2)C1 (stereo not drawn) [N-[(1-cyanocyclopropyl)carbamoylmethyl]-N-ethyl-9-methyl-6-(oxan-4-yl)-5,6,7,8-tetrahydrocarbazole-3-carboxamide] |  |  | > 1170 nM
24 | C[C@@H](C(=O)NCCF)N(C)C(=O)c1ccc2c(c1)c1c(n2C)CCC(C2CCOCC2)C1 (stereo partly drawn) [N-[(1S)-1-(2-fluoroethylcarbamoyl)ethyl]-N,9-dimethyl-6-(oxan-4-yl)-5,6,7,8-tetrahydrocarbazole-3-carboxamide] |  |  | > 1400 nM
25 | C[C@@H](C(=O)NC1CC1)N(C)C(=O)c1ccc2c(c1)c1c(n2C)CCC(C2CCOCC2)C1 (stereo partly drawn) [N-[(1S)-1-(cyclopropylcarbamoyl)ethyl]-N,9-dimethyl-6-(oxan-4-yl)-5,6,7,8-tetrahydrocarbazole-3-carboxamide] |  |  | > 3530 nM
26 | Cn1c2c(c3cc(C(=O)N4CC(CC(=O)NC5CC5)C4)ccc31)CC(C1CCOCC1)CC2 (stereo not drawn) [N-cyclopropyl-2-[1-[9-methyl-6-(oxan-4-yl)5,6,7,8-tetrahydrocarbazole-3-carbonyl]azetidin-3-yl]acetamide] |  |  | 2080 nM
